Laboratory results reported in patent US12605418B2, “Chebulinic acid and its enriched fraction from the fruits of Terminalia chebula for treatment of benign prostatic hyperplasia (BPH) and its preparation thereof” (COUNCIL OF SCIENTIFIC AND INDUSTRIAL RESEARCH, priority 2020, dated 2026).
“Also recorded” adds a separate entry of the source.

Experiments:
Format in all cases: in vivo, male Sprague-Dawley (SD) rats
[1] = test system: Poly [ADP-ribose] polymerase 1 (PARP1); assay: Expression of PARP1 in BPH induced rat model; details: vs BPH induced group; finasteride positive control
Procedure: (§1) To assess the therapeutic effect of Chebulinic Acid (CA) and Chebulinic acid Enriched fraction (CAEF) on Benign Prostatic Hyperplasia (BPH), rat BPH model has been successfully generated by testosterone induction method. For model induction of BPH, Orchiectomy (Surgical removal of Testis) of rats was performed and then animals were left for ten days to recover. Now BPH was induced through the daily subcutaneous injections of Testosterone (5 mg/kg & 6.25 mg/ml in Corn Oil) at the inguinal region for 28 days continuously. While the treatment group received 7 days continuous administration of Testosterone and then Testosterone+CA (100 mg/kg B.W) or Testosterone+CAEF (100/200 mg/kg B.W.) or Testosterone+Finasteride (3 mg/kg) were administered orally once a day to these animals for next 21 days (FIG. 3). In another experiment the treatment group received 7 days continuous administration of Testosterone and then Testosterone+CAEF (100 mg/kg B.W.) administered orally once a day to these animals for next 4 weeks (group 1) 8 weeks (group 2) and 12 weeks (group 3) (FIG. 6). After that these animals were left for fasting overnight and sacrificed next day; their prostatic as well as other reproductive organs were dissected out. Portions of the prostatic ventral lobes were stored in 4% paraformaldehyde for histological and immuno-histochemical processing. […]

[2] = test system: Testosterone-induced BPH rats; assay: Prostate weight and prostate weight index (PI) in testosterone-induced BPH rat model; details: for Prostate weight index (PI): oral once a day for 21 days, CA 100 mg/kg, CAEF 100/200 mg/kg, Finasteride 3 mg/kg, vs Testosterone induced group (FIG. 3); for Prostatic weight: BPH induced rats, vs induced group (FIGS. 3 and 6)
Procedure: 12-14-week-old (3 month) male Sprague-Dawley (SD) rats with initial body weights of 200-220 g were taken from National Animal Laboratory Centre, CSIR-Central drug research institute (CDRI), Lucknow. The animals were maintained in conditions in accordance with the rules and regulation of animal ethical committee. These rats were housed in a pathogen-free room at 23±2° C. and a relative humidity of 70% with an alternating 12 h light/dark cycle. To assess the therapeutic effect of Chebulinic Acid (CA) and Chebulinic acid Enriched fraction (CAEF) on Benign Prostatic Hyperplasia (BPH), rat BPH model has been successfully generated by testosterone induction method. For model induction of BPH, Orchiectomy (Surgical removal of Testis) of rats was performed and then animals were left for ten days to recover. Now BPH was induced through the daily subcutaneous injections of Testosterone (5 mg/kg & 6.25 mg/ml in Corn Oil) at the inguinal region for 28 days continuously. While the treatment group received 7 days continuous administration of Testosterone and then Testosterone+CA (100 mg/kg B.W) or Testosterone+CAEF (100/200 mg/kg B.W.) or Testosterone+Finasteride (3 mg/kg) were administered orally once a day to these animals for next 21 days (FIG. 3). In another experiment the treatment group received 7 days continuous administration of Testosterone and then Testosterone+CAEF (100 mg/kg B.W.) administered orally once a day to these animals for next 4 weeks (group 1) 8 weeks (group 2) and 12 weeks (group 3) (FIG. 6). After that these animals were left for fasting overnight and sacrificed next day; their prostatic as well as other reproductive organs were dissected out. Portions of the prostatic ventral lobes were stored in 4% paraformaldehyde for histological and immuno-histochemical processing. Half of the remaining prostate tissue was stored in RNA later and the other half was stored at −80° C. for subsequent biochemical and molecular experiments. Blood samples were obtained from the caudal vena cava and collected in serum separating tubes. Testosterone induced BPH animal models were sacrificed after the simultaneous treatment of 21 days. The intact prostate tissue was dissected and removed carefully from these sacrificed animals. Now the prostate weight (PW) was measured and the prostate index (PI) was calculated as PW (mg)/Body Weight (gm)×100. Data were expressed as the mean±SEM of four animals per group (n=4 per group). The values were analysed using one-way analysis of variance. Values were considered statistically significant at p<0.05.

Procaspase 3 = assay: Expression of Procaspase 3 in BPH induced rat model; details: vs induced animal model; finasteride positive control
[3] = test system: Vascular endothelial growth factor (VEGF); assay: Expression of VEGF in BPH induced rat model; details: within three weeks; vs non-treated induced BPH group; finasteride positive control
[4] = test system: Prostate-Specific Antigen (PSA); assay: PSA expression in prostate tissue and serum of BPH rats (western blot); details: three weeks, CA 100 mg/kg, CAEF 200 mg/kg, CAEF formulation 200 mg/kg
PSA = PSA level in serum of BPH rats (ELISA); details: summary statement, FIGS. 5 and 7
anti-apoptotic markers = assay: Anti-apoptotic markers in BPH rats (FIGS. 8-13, summary); details: summary of FIGS. 8-13
Procedure: as §1

[5] = test system: prostatic tissues in testosterone induced BPH rats; assay: Histopathological examination (H&E) of prostate tissue in testosterone-induced BPH rats; details: for Histological conditions / architecture of the prostate: BPH induced rats (FIG. 4)
[6] = Testosterone serum level in BPH rats; details: BPH induced rats after treatment

| SMILES | Expression of PARP1 [1] | Prostate weight index (PI) [2] | Expression of Procaspase 3 (Procaspase 3) | Expression of VEGF [3] | PSA expression in prostate tissue [4] | PSA expression in serum [4] | Prostatic weight index compared with normal control group ([2]; 100/200 mg/kg dose (FIG. 3) and 100 mg/kg of CAEF (FIG. 6)) | Prostatic weight [2] | Prostatic weight ([2]; listed as Chebulinic acid) | Development of prostatic hyperplasia ([2]; testosterone-induced BPH rats) | Level of PSA in sera (PSA) | Anti-apoptotic markers (anti-apoptotic markers) | Histological conditions / architecture of the prostate [5] | Histological conditions / architecture of the prostate ([5]; listed as Chebulinic acid) | Glandular hyperplasia of the prostate (histopathological examination) ([5]; BPH rats) | Prostatic lumen area ([5]; H&E, CA/CAEF 100/200 mg/kg, vs Induced BPH group (FIG. 4)) | Level of testosterone in sera [6] |
| --- | --- | --- | --- | --- | --- | --- | --- | --- | --- | --- | --- | --- | --- | --- | --- | --- | --- |
| CC(C)(C)NC(=O)[C@H]1CC[C@H]2[C@@H]3CC[C@H]4NC(=O)C=C[C@]4(C)[C@H]3CC[C@]12C [Finasteride] | reduced expression | close to the 200 mg/kg CA/CAEF treated group | decreased expression | reduced expression |  |  |  |  |  |  |  |  |  |  |  |  |  |
| O=C(O)CC1C(=O)OC2C(COC(=O)c3cc(O)c(O)c(O)c3)OC(OC(=O)c3cc(O)c(O)c(O)c3)C(OC(=O)c3cc(O)c(O)c4c3C1C(O)C(=O)O4)C2OC(=O)c1cc(O)c(O)c(O)c1 [CA, 1.3,6-tri-O-galloyl-2,4-chebuloyl-beta-D-glucose] |  | significantly decreased; also recorded: reduced significantly |  |  | down-regulated | down-regulated | quite close to the normal control group | reduced significantly; also recorded: significant reduction | decreased the prostate weight | significantly suppressed; also recorded: suppressed the development of prostatic hyperplasia considerably | reduced level | down-regulated | improved histological conditions | restored the altered histological architecture | mild glandular hyperplasia | increased prostatic lumen areas significantly | reduced level |
